This is an account of results in US11289729B2, “Redox flow batteries and compounds for battery application” (THE TRUSTEES OF COLUMBIA UNIVERSITY IN THE CITY OF NEW YORK, priority 2017, dated 2022).

Values joined by “and” are separate entries in the source; they are usually repeats but may differ in a detail not shown here. Equal entries are not always repeated. A value given as a limit tells only on which side of the number the result lay.

Data set [1] in a line: Stability of charged spiro and cyclopropenium compounds on storage. Type of data set: physicochemical. From the text: The state of charge on discharge was 87%. […] Additionally, the calendar fade of the molecule was improved over certain previously reported high voltage organic radicals.
A short description of data set [2]: Solubility / maximum concentration of the electrolytes in organic solvent.
Data set [3] is described as follows: Crossover of active molecules through the cellulose dialysis membrane in an H-cell (UV-Vis). Type of data set: physicochemical. The method, then: The present example tested whether the membrane is amenable to large temperature excursions and to higher-voltage second generation compounds. The membrane was exposed to high (110° C.) and low (−20° C.) temperatures, as well as to strong reducing and oxidizing conditions, after which, dialysis was performed. Details are disclosed below. For example, the membrane was soaked in a solution of sodium naphthalenide (approximately −3.0 V vs Fc^0/+) and subsequently assembled an H-cell with this membrane. One chamber of the H-cell was filled with [PDI][TFSI]2 in acetonitrile (FIG. 1), while the other contained pure acetonitrile. [PDI][TFSI]2 was used for crossover experiments due to its smaller sized and strong absorption. […] Moreover, typical aqueous cells would not be operable at these extreme temperatures.
The present example next quantitatively assessed the impact of these treatments on the membrane's performance under battery operating conditions. […] To quantify the amount of crossover, UV-Vis spectra of the [Fc4] chamber was taken. […] Additionally, the low concentration cell above (FIG. 7D) was dismantled after cycling and checked for crossover. […] The key finding is that the cellulose based membrane is effective in organic solvents over long periods of time, stable to a >3 V voltage window, and stable to temperatures outside the range available for aqueous systems.
The membranes were soaked in water for 1 h before treatment. For high temperature, the membrane was rinsed with propylene carbonate, placed in propylene carbonate and heated to 110° C. overnight in a vial. For low temperature, the membrane was rinsed with acetonitrile and placed in acetonitrile in a vial in a −20° C. freezer overnight. For oxidizing conditions, the membrane was rinsed with acetonitrile and stirred in nitrosonium tetrafluoroborate (NOBF4, 0.1 M in acetonitrile) for 4 h. For reducing conditions, the membrane was rinsed with anhydrous diglyme, placed in anhydrous diglyme, and sparged for 3 h before being brought into a glove box. It was rinsed in a fresh solution of diglyme before being added to a solution of sodium naphthalenide (0.1 M in diglyme) in a glove box for 1 h. The sodium naphthalenide was a persistent dark green the entire time indicating no quenching of the reagent. A control where the membrane was only soaked in water and rinsed with acetonitrile was also performed.
Following these conditions, [PDI][TFSI]2 (20 mg) and LiPF6 (60 mg) in acetonitrile were added to one side of the H-cell. […] The blank side was colorless for all conditions except nitrosonium tetrafluoroborate, where a minimal amount of fluorescence could be seen. The control H-cell was monitored for crossover for a further 12 days, at which point the absorbance was measured by UV-visible spectroscopy and the amount determined using the molar absorptivity of [PDI][TFSI]2 (0.05% over 12 days, FIG. 10 and FIG. 11).
After these qualitative experiments, membranes treated to the same four conditions as mentioned above were brought into the glovebox in degassed anhydrous solvent and used for cycling experiments with 19 mg [PDI][TFSI]2 and 9 mg [Fc4] in 0.5M LiPF6 (FIG. 9C). The cells were run at a 1 C current (0.7 mA) for 12 cycles. At the end of the experiment, the UV-visible spectrum was taken of the [Fc4] side. […]

Setting [4] is: acetonitrile vs pure acetonitrile, stirring overnight.
Setting [5] is: cycling H-cell, 1 C, 12 cycles, 0.5 M LiPF6, UV-Vis of [Fc4] side.

With dimethylpiperidine cyclopropenium, in data set [1] (3 months out of glovebox), the “persistence of charged state” value is reported as “still charged”.

As to “perylene diimide trifluoromethane sulfonimide [[PDI][TFSI]2]”, the “concentration accessible in acetonitrile” value in data set [2] turned out to be 1 M electron. Also, in data set [3] (setting [4]), the “visible crossover, NOBF4-treated membrane” value is “slight fluorescence from crossover” and the “visible crossover, sodium naphthalenide-treated membrane” value was “no detectable crossover”. For the same substance, the “crossover, control membrane” value in data set [3] (control H-cell, acetonitrile with LiPF6, over 12 days) amounted to 0.05%. Besides, in data set [3] (setting [5]), the “crossover, NOBF4-treated (oxidizing) membrane” value was 1.25%; the “crossover, cold (−20° C.) treated membrane” value was < 0.05% and 0.032%; the “crossover, hot (110° C.) treated membrane” value is < 0.05% and 0.028%; the “crossover, sodium naphthalenide-treated (reducing) membrane” value is < 0.05% and 0.038%. In addition, the “crossover after long-term cycling” value in data set [3] (low concentration cell dismantled after >30 days and >250 cycles) stood at 0.2%.

“spiro-ethylphthalimide [spirophthalimide]”: the “degradation in charged state (1H NMR)” value in data set [1] (1 week of charge) is “No degradation”.
